Results on 22 molecules are retold here after patent US20260062443A1 (ALEXION PHARMACEUTICALS, INC., priority 2022, published 2026).

The assay has as its target T1, Human complement C1s enzyme (Homo sapiens, UniProt P09871).
T1 sequence (P09871 438-688 limits assumed): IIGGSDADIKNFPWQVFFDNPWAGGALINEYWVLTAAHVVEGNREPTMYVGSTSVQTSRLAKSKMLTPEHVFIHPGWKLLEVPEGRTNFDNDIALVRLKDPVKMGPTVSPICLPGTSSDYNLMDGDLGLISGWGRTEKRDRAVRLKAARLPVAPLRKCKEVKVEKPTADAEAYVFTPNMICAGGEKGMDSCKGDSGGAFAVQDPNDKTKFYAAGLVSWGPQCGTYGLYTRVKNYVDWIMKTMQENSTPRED
T1 sequence (P09871 16-437 partner limits assumed): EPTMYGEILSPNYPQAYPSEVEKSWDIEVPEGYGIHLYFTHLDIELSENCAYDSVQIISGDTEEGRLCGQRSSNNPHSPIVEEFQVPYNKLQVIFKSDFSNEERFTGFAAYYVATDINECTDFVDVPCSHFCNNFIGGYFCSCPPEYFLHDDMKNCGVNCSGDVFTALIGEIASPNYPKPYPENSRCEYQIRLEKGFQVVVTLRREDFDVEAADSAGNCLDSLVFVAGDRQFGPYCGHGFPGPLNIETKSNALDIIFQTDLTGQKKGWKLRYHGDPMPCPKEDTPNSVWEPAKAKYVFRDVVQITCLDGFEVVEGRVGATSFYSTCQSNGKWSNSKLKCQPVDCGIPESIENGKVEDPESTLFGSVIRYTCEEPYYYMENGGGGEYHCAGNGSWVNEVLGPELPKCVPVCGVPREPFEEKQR
In words: Human C1s enzyme assay. The class given is biochemical. The essentials:
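IC50 from nonlinear regression of reaction rates versus compound concentration, with rates taken from A405 recorded at 30 s intervals over 30 min after adding 100 μM Z-L-Lys-SBzl plus 100 μM DTNB. Enzyme was human C1s purified from serum, 1.16 nM, given 5 min compound preincubation at room temperature, pH 7.5 Tris/1 M NaCl.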

Setting [1] is: human complement C1s enzyme 1.16 nM, substrate Z-L-Lys-SBzl 100 μM, 5 min preincubation, read-out: IC50 (Stars), C1s Inhibiting Activity.

Where two headings read alike, the source gives them in different places.

On to `O=C(NCC(=O)N1C[C@H](OC(F)F)C[C@H]1C(=O)NCc1cc2cnccc2[nH]1)c1cccc(Oc2ccc(F)cc2)c1` [Compound 154, (2S,4R)-N-((1H-pyrrolo[3,2-c]pyridin-2-yl)methyl)-4-(difluoromethoxy)-1-((3-(4-fluorophenoxy)benzoyl)glycyl)pyrrolidine-2-carboxamide], for which, under setting [1], the IC50 was < 100 nM. The same measure, in the same setting: for `C[C@@]12C[C@@H](C(=O)NCc3cc4cnccc4[nH]3)N(C(=O)CNC(=O)c3cccc(Oc4ccc(F)cc4)c3)[C@@H]1C2` [Compound 155, (1R,3S,5R)-N-((1H-pyrrolo[3,2-c]pyridin-2-yl)methyl)-2-((3-(4-fluorophenoxy)benzoyl)glycyl)-5-methyl-2-azabicyclo[3.1.0]hexane-3-carboxamide] the value was 100 to 1000 nM. The same measure, in the same setting: in the case of `C[C@@]12C[C@@H]1N(C(=O)CN1Cc3ccc(Oc4ccccc4)cc3C1=O)[C@H](C(=O)NCc1cc3cnccc3[nH]1)C2` [Compound 156, (1S,3S,5S)-N-((1H-pyrrolo[3,2-c]pyridin-2-yl)methyl)-5-methyl-2-(2-(1-oxo-6-phenoxyisoindolin-2-yl)acetyl)-2-azabicyclo[3.1.0]hexane-3-carboxamide] it was 100 to 1000 nM. As to `O=C(NCC(=O)N1CC2(C[C@H]1C(=O)NCc1cc3cnccc3[nH]1)OCCO2)c1cccc(Oc2ccc(F)cc2)c1` [Compound 157, (S)-N-((1H-pyrrolo[3,2-c]pyridin-2-yl)methyl)-7-((3-(4-fluorophenoxy)benzoyl)glycyl)-1,4-dioxa-7-azaspiro[4.4]nonane-8-carboxamide], the 50% inhibitory concentration (IC50) under setting [1] is < 100 nM. As to `O=C(NCC(=O)N1CC[C@@H](O)[C@H]1C(=O)NCc1cc2cnccc2[nH]1)c1ccc2c(c1)Oc1ccccc1S2` [Compound 158, (2S,3R)-N-((1H-pyrrolo[3,2-c]pyridin-2-yl)methyl)-3-hydroxy-1-((phenoxathiine-3-carbonyl)glycyl)pyrrolidine-2-carboxamide], the IC50 under setting [1] is < 100 nM. With `C[C@@]12C[C@@H]1N(C(=O)CNC(=O)c1cccc(-c3ccccc3)n1)[C@H](C(=O)NCc1cc3cnccc3[nH]1)C2` [Compound 159, (1S,3S,5S)-N-((1H-pyrrolo[3,2-c]pyridin-2-yl)methyl)-5-methyl-2-((6-phenylpicolinoyl)glycyl)-2-azabicyclo[3.1.0]hexane-3-carboxamide], under setting [1], the concentration for half-maximal inhibition (IC50) was > 1000 nM.

For `CO[C@@H]1C[C@@H](C(=O)N[C@H](C)c2cc3cnccc3[nH]2)N(C(=O)CNC(=O)c2ccc3c(c2)Oc2ccccc2S3)C1` [Compound 160, (2S,4R)-N-((R)-1-(1H-pyrrolo[3,2-c]pyridin-2-yl)ethyl)-4-methoxy-1-((phenoxathiine-3-carbonyl)glycyl)pyrrolidine-2-carboxamide], the IC50 under setting [1] was < 100 nM. For the molecule `C[C@@H](NC(=O)[C@@H]1C[C@]2(CO)C[C@@H]2N1C(=O)CNC(=O)c1ccc2c(c1)Oc1ccccc1S2)c1cc2cnccc2[nH]1` [Compound 161, (1S,3S,5R)-N-((R)-1-(1H-pyrrolo[3,2-c]pyridin-2-yl)ethyl)-5-(hydroxymethyl)-2-((phenoxathiine-3-carbonyl)glycyl)-2-azabicyclo[3.1.0]hexane-3-carboxamide], the concentration for half-maximal inhibition (IC50) under setting [1] is < 100 nM. Same read-out and setting: in the case of `C[C@@H](NC(=O)[C@@H]1C[C@](F)(CF)CN1C(=O)CNC(=O)c1ccc(-c2ccc(F)cc2F)cc1)c1cc2cnccc2[nH]1` [Compound 162, (2S,4R)-N-((R)-1-(1H-pyrrolo[3,2-c]pyridin-2-yl)ethyl)-1-((2′,4′-difluoro-[1,1′-biphenyl]-4-carbonyl)glycyl)-4-fluoro-4-(fluoromethyl)pyrrolidine-2-carboxamide] it was 100 to 1000 nM; in that of `C[C@@H](NC(=O)[C@@H]1C[C@]2(C)C[C@@H]2N1C(=O)CNC(=O)c1ccc(Oc2ccccc2)cc1)c1cc(B(O)O)cs1` [Compound 163, (5-((R)-1-((1S,3S,5S)-5-methyl-2-((4-phenoxybenzoyl)glycyl)-2-azabicyclo[3.1.0]hexane-3-carboxamido)ethyl)thiophen-3-yl)boronic acid], > 1000 nM.

For `C[C@@H](NC(=O)[C@@H]1C[C@](F)(CF)CN1C(=O)CNC(=O)c1ccc2c(c1)Oc1ccccc1S2)c1cc2cnccc2[nH]1` [Compound 164, (2S,4R)-N-((R)-1-(1H-pyrrolo[3,2-c]pyridin-2-yl)ethyl)-4-fluoro-4-(fluoromethyl)-1-((phenoxathiine-3-carbonyl)glycyl)pyrrolidine-2-carboxamide], under setting [1], the concentration for half-maximal inhibition (IC50) was < 100 nM. For the molecule `C[C@H]1C[C@@H](C(=O)N[C@H](C)c2cc3cnccc3[nH]2)N(C(=O)CNC(=O)c2ccc3c(c2)Oc2ccccc2S3)C1` [Compound 165, (2S,4S)-N-((R)-1-(1H-pyrrolo[3,2-c]pyridin-2-yl)ethyl)-4-methyl-1-((phenoxathiine-3-carbonyl)glycyl)pyrrolidine-2-carboxamide], under setting [1], the 50% inhibitory concentration (IC50) is < 100 nM. Regarding `C[C@H]1C[C@@H](C(=O)N[C@H](C)c2cc3cnccc3[nH]2)N(C(=O)CNC(=O)c2ccc3c(c2)-c2ccccc2C3(F)F)C1` [Compound 166, (2S,4S)-N-((R)-1-(1H-pyrrolo[3,2-c]pyridin-2-yl)ethyl)-1-((9,9-difluoro-9H-fluorene-3-carbonyl)glycyl)-4-methylpyrrolidine-2-carboxamide], under setting [1], the IC50 was < 100 nM. The same measure, in the same setting: in the case of `C[C@@H](NC(=O)[C@@H]1C[C@@H](OC(F)F)CN1C(=O)CNC(=O)c1ccc2c(c1)C(F)(F)c1ccccc1-2)c1cc2cnccc2[nH]1` [Compound 167, (2S,4R)-N-((R)-1-(1H-pyrrolo[3,2-c]pyridin-2-yl)ethyl)-1-((9,9-difluoro-9H-fluorene-2-carbonyl)glycyl)-4-(difluoromethoxy)pyrrolidine-2-carboxamide] it was < 100 nM.

Take `C[C@@H](NC(=O)[C@@H]1C[Si](C)(C)CN1C(=O)CNC(=O)c1ccc2c(c1)Oc1ccccc1S2)c1cc2cnccc2[nH]1` [Compound 168, (R)-N-((R)-1-(1H-pyrrolo[3,2-c]pyridin-2-yl)ethyl)-3,3-dimethyl-1-((phenoxathiine-3-carbonyl)glycyl)-1,3-azasilolidine-5-carboxamide]: the IC50 is < 100 nM.

Turning to `C[C@@H](NC(=O)[C@@H]1C[C@@H](c2ccccc2)CN1C(=O)CNC(=O)c1ccc2c(c1)Oc1ccccc1S2)c1cc2cnccc2[nH]1` [Compound 169, (2S,4S)-N-((R)-1-(1H-pyrrolo[3,2-c]pyridin-2-yl)ethyl)-1-((phenoxathiine-3-carbonyl)glycyl)-4-phenylpyrrolidine-2-carboxamide], the half-inhibitory concentration (IC50) under setting [1] is < 100 nM. In the case of `C[C@@]12C[C@@H]1N(C(=O)CNC(=O)c1ccc3c(c1)Oc1ccccc1S3)[C@H](C(=O)NCc1cc3c(s1)CCNC3)C2` [Compound 170, (1S,3S,5S)-5-methyl-2-((phenoxathiine-3-carbonyl)glycyl)-N-((4,5,6,7-tetrahydrothieno[3,2-c]pyridin-2-yl)methyl)-2-azabicyclo[3.1.0]hexane-3-carboxamide], the IC50 under setting [1] was < 100 nM.

Consider `C[C@@H](NC(=O)[C@@H]1C[C@]2(C)C[C@@H]2N1C(=O)CNC(=O)c1cccc(Oc2ccccc2)c1)c1cc2cnccc2[nH]1` [Compound 171, (1S,3S,5S)-N-((R)-1-(1H-pyrrolo[3,2-c]pyridin-2-yl)ethyl)-5-methyl-2-((3-phenoxybenzoyl)glycyl)-2-azabicyclo[3.1.0]hexane-3-carboxamide], for which the IC50 under setting [1] was < 100 nM. As for `COC[C@@]1(F)C[C@@H](C(=O)N[C@H](C)c2cc3cnccc3[nH]2)N(C(=O)CNC(=O)c2ccc3c(c2)Oc2ccccc2S3)C1` [Compound 173, (2S,4R)-N-((R)-1-(1H-pyrrolo[3,2-c]pyridin-2-yl)ethyl)-4-fluoro-4-(methoxymethyl)-1-((phenoxathiine-3-carbonyl)glycyl)pyrrolidine-2-carboxamide], the IC50 under setting [1] is < 100 nM. Same read-out and setting: for `C[C@@H](NC(=O)[C@@H]1C[C@@H](S(=O)(=O)C2CC2)CN1C(=O)CNC(=O)c1ccc2c(c1)Oc1ccccc1S2)c1cc2cnccc2[nH]1` [Compound 174, (2S,4R)-N-((R)-1-(1H-pyrrolo[3,2-c]pyridin-2-yl)ethyl)-4-(cyclopropylsulfonyl)-1-((phenoxathiine-3-carbonyl)glycyl)pyrrolidine-2-carboxamide] the value was < 100 nM; for `COC[C@@]1(F)C[C@@H](C(=O)N[C@H](C)c2cc3cnccc3[nH]2)N(C(=O)CNC(=O)c2ccc(Oc3ccc(F)cc3)cc2)C1` [Compound 175, (2S,4R)-N-((R)-1-(1H-pyrrolo[3,2-c]pyridin-2-yl)ethyl)-4-fluoro-1-((4-(4-fluorophenoxy)benzoyl)glycyl)-4-(methoxymethyl)pyrrolidine-2-carboxamide], < 100 nM; for `C[C@@H](NC(=O)[C@@H]1C[C@@H](C(F)(F)F)CN1C(=O)CNC(=O)c1ccc2c(c1)Oc1ccccc1S2)c1cc2cnccc2[nH]1` [Compound 176, (2S,4R)-N-((R)-1-(1H-pyrrolo[3,2-c]pyridin-2-yl)ethyl)-1-((phenoxathiine-3-carbonyl)glycyl)-4-(trifluoromethyl)pyrrolidine-2-carboxamide], < 100 nM.

As a reminder, the IC50 is the point on the concentration scale where inhibition reaches its midpoint.
